Some test systems named below: 786-0; A498; ACHN; CAKI-1; DU-145; EKVX; HCT-116; MCF7; MDA-MB-435; MOLT-4; NCI-H226; OVCAR-3; OVCAR-4; PC-3; SK-MEL-28; SK-MEL-2; SK-MEL-5; SK-OV-3; TK-10; UACC-257.
What all share (assay): NCI anticancer screen, dose series, 48 h

The structures appear in SMILES notation.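 Briefly, cells in 96-well plates were exposed to five compound concentrations for 48 h, and endpoints were estimated by linear interpolation. GI50 = concentration required for 50% inhibition of growth.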 Activity calls are given as the source filed them. Rule as the data show it: active = GI50 up to about 1.1 µM and inactive = higher.

Take `COc1cc2c(cc1OCCCC(=O)Nc1cc(C(=O)Nc3cc(C(=O)Nc4cc(C(=O)NCCCN(C)C)n(C)n4)n(C)c3)n(C)c1)N=CC1CCCN1C2=O` (stereo not given): the GI50 with 786-0 is 22300 nM (inactive); in the experiment with A498 it was 29200 nM (inactive); in the experiment on ACHN, 17100 nM (inactive); with CAKI-1, 25100 nM (inactive); with DU-145, 32100 nM (inactive); in the experiment on EKVX it was 74000 nM (inactive). The GI50 with HCT-116 was 51400 nM (inactive); in the experiment with MCF7, 16800 nM (inactive); in the experiment with MDA-MB-435, 21000 nM (inactive); in the experiment with MOLT-4, 4010 nM (inactive); in the experiment on NCI-H226, 25100 nM (inactive); in the experiment with OVCAR-3 it was 40300 nM (inactive). Also, the GI50 in the experiment on OVCAR-4 is 20100 nM (inactive); in the experiment on PC-3, 23600 nM (inactive); with SK-MEL-28, 17100 nM (inactive); in the experiment on SK-MEL-2, 23100 nM (inactive); with SK-MEL-5 it was 19500 nM (inactive); with SK-OV-3, 40600 nM (inactive). The GI50 with TK-10 is 21000 nM (inactive); in the experiment with UACC-257 it was 19700 nM (inactive).

With `O=C1c2cccnc2-c2nccc3c2c1nc1ccccc13` [ASCIDIDEMIN], the GI50 was 752 nM (active) in the experiment with 786-0; 270 nM (active) with A498; 37.1 nM (active) with ACHN; 215 nM (active) with CAKI-1; 62.1 nM (active) with DU-145; 912 nM (active) with EKVX. Moreover, the GI50 in the experiment on HCT-116 was 35.2 nM (active); in the experiment on MCF7 it was 70.8 nM (active); in the experiment with MDA-MB-435 it was 190 nM (active); with MOLT-4 it was 692 nM (active); in the experiment on NCI-H226, 210 nM (active); with OVCAR-3, 31.8 nM (active). For the same molecule, the GI50 is 1030 nM (active) in the experiment with OVCAR-4; 188 nM (active) in the experiment with PC-3; 321 nM (active) in the experiment on SK-MEL-28; 184 nM (active) in the experiment on SK-MEL-2; 58.3 nM (active) with SK-MEL-5; 272 nM (active) in the experiment with SK-OV-3. Besides, the results for the GI50 in the experiment with TK-10 and with UACC-257 were 1270 nM (inactive) and 321 nM (active), respectively.

As for `CC1CC(C)(O)CC(C(O)CC2CC(=O)NC(=O)C2)C1=O` (stereo not given) [RESACTIN A], the GI50 in the experiment on 786-0 was 25.2 nM (active); in the experiment on A498 it was 67 nM (active); in the experiment on ACHN, 22.4 nM (active); with CAKI-1, < 10 nM (active); in the experiment with DU-145, 46.1 nM (active); in the experiment with EKVX, 50.5 nM (active). The GI50 with HCT-116 was 30.8 nM (active); in the experiment on MCF7, 37.9 nM (active); with MDA-MB-435, 43.2 nM (active); in the experiment on MOLT-4, 15.1 nM (active); in the experiment with NCI-H226, 68.9 nM (active); in the experiment with OVCAR-3, 56.6 nM (active). Moreover, the GI50 was 44.7 nM (active) in the experiment on OVCAR-4; 46.5 nM (active) with PC-3; 47.8 nM (active) with SK-MEL-28; 58.5 nM (active) with SK-MEL-2; 13.2 nM (active) in the experiment on SK-MEL-5; 81.8 nM (active) in the experiment on SK-OV-3. For the same molecule, the values for the GI50 with TK-10 and with UACC-257 were 187 nM (active) and 54.1 nM (active), respectively.

The values above are taken from ChEMBL document CHEMBL1201862, “PubChem BioAssay data set” (2004).
